Reference: ChEMBL document CHEMBL4152362, “Discovery of DS-6930, a potent selective PPARγ modulator. Part II: Lead optimization” (Bioorg Med Chem, 2018)
Converted amounts (≈) assume the structure as drawn. The source made the active and inactive calls. The rule behind the calls is not given here.

Columns and labels:
[1] = target: T1, Peroxisome proliferator-activated receptor alpha (Homo sapiens, UniProt Q07869); test: Agonist activity at recombinant human GAL4-DBD fused PPARalpha LBD expressed in COS7 cells after 24 hrs by luciferase reporter gene assay; assay type: cell-based
T1 sequence (Q07869 whole entry): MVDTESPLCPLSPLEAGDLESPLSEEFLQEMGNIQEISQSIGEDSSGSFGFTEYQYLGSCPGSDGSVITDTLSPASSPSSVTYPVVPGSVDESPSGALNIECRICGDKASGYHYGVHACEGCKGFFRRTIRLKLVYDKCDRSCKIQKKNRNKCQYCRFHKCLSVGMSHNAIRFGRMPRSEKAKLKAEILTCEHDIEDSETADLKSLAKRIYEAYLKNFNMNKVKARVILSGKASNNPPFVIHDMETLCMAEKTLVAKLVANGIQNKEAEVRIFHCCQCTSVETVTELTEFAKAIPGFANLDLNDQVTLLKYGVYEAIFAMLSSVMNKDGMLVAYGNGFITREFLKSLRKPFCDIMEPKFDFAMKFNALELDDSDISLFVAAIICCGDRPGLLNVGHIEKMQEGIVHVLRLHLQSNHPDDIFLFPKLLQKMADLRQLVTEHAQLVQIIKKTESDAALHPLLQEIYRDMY

[2] = target: T2, Peroxisome proliferator-activated receptor gamma (Homo sapiens, UniProt P37231); test: Agonist activity at recombinant human GAL4-DBD fused PPARgamma LBD expressed in COS7 cells after 24 hrs by luciferase reporter gene assay; assay type: cell-based
T2 sequence (P37231 whole entry): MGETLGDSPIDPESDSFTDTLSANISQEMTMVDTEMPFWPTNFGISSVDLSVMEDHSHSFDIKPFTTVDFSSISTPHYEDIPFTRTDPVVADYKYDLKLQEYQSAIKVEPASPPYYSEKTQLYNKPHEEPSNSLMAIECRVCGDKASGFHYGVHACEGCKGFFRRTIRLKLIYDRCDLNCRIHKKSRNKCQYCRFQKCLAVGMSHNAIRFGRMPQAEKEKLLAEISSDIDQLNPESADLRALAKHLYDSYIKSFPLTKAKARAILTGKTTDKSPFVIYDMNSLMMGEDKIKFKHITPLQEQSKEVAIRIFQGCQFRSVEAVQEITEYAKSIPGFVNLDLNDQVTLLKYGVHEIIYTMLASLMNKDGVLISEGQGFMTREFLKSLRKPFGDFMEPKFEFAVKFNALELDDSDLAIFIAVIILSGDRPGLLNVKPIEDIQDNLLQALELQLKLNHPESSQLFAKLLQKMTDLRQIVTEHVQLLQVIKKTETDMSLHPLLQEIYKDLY

[3] = Apparent permeability of the compound after 4 hrs by PAMPA; assay type: ADME
[4] = 1-octanol/PBS distribution co-efficient, log D of the compound at […] at pH 7.4 after 30 mins by HPLC-MS/MS method; assay type: physicochemical
[5] = target: T3, Peroxisome proliferator-activated receptor alpha (Homo sapiens) (UniProt Q07869); test: Agonist activity at recombinant human GAL4-DBD fused PPARalpha LBD expressed in COS7 cells at 10 uM after 24 hrs by luciferase reporter gene assay relative to 2-(4-tert-Butylphenoxy)-3-[4-[2-[(4-pyridin-2-ylbenzoyl)amino]ethoxy] phenyl]propionic acid; assay type: cell-based
T3 sequence (whole entry): T1 sequence (Q07869 whole entry)

[6] = target: T4, Peroxisome proliferator-activated receptor gamma (Homo sapiens) (UniProt P37231); test: Agonist activity at recombinant human GAL4-DBD fused PPARgamma LBD expressed in COS7 cells at 10 uM after 24 hrs by luciferase reporter gene assay relative to rosiglitazone; assay type: cell-based
T4 sequence (whole entry): T2 sequence (P37231 whole entry)

[7] = Aqueous thermodynamic solubility of the compound in pH 6.8 solution up to 4 hrs by HPLC-UV analysis; assay type: physicochemical; conditions: read-out: Therm_solubility
[8] = Metabolic stability in human liver microsomes after 0.5 hrs; assay type: ADME, microsome; conditions: read-out: Stability
[9] = target: T5, Peroxisome proliferator-activated receptor delta (Homo sapiens) (UniProt Q03181); test: Agonist activity at PPARdelta (unknown origin) at 10 uM
T5 sequence (whole entry): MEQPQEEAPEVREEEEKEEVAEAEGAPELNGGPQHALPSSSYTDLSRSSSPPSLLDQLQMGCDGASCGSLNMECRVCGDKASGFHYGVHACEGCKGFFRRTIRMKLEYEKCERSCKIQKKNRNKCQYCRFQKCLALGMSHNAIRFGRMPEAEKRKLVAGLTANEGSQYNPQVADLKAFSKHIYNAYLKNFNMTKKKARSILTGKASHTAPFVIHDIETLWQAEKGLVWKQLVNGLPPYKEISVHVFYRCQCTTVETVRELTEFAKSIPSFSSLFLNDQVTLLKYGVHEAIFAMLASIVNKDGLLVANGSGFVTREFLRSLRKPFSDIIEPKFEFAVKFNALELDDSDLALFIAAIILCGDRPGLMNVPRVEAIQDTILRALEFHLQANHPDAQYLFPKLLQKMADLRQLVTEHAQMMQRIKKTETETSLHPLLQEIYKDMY

SMILES: Cn1c(COc2cccc(C(=O)O)c2)nc2ccc(Oc3ccc(F)cn3)cc21
- EC50 [1]: > 10000 nM
- EC50 [2]: 808 nM
- Papp at 4 h [3]: 4.7 ×10⁻⁶ cm/s
- logD at 0.5 h [4]: 0.6
- Emax [5]: 5%
- Emax [6]: 87%
- solubility thermodynamic at 4 h [7]: 79 µg/mL (≈ 201 µM)

SMILES: Cc1cnc(Oc2ccc3nc(COc4cccc(C(=O)O)c4)n(C)c3c2)c(F)c1
- Emax [5]: 4%
- Emax [6]: 74%

SMILES: Cc1cc(F)cnc1Oc1ccc2nc(COc3cccc(C(=O)O)c3)n(C)c2c1
- EC50 [1]: > 10000 nM
- remaining at 0.5 h [8]: 93%
- Papp at 4 h [3]: 8.3 ×10⁻⁶ cm/s
- logD at 0.5 h [4]: 1.1
- Emax [5]: 2%
- Emax [6]: 100%
- solubility thermodynamic at 4 h [7]: 14 µg/mL (≈ 34.4 µM)

SMILES: Cn1c(COc2cccc(C(=O)O)c2)nc2ccc(Oc3ccc(Cl)c(F)c3)nc21
- EC50 [1]: > 10000 nM
- remaining at 0.5 h [8]: 92%
- EC50 [2]: 269 nM
- Papp at 4 h [3]: 25.6 ×10⁻⁶ cm/s
- logD at 0.5 h [4]: 2.2
- Activity [9]: inactive
- Emax [5]: 45%
- Emax [6]: 88%
- solubility thermodynamic at 4 h [7]: 1.7 µg/mL (≈ 3.97 µM)

SMILES: Cc1ccc(Oc2ccc3nc(COc4cccc(C(=O)O)c4)n(C)c3c2)nc1C
- EC50 [1]: > 10000 nM
- remaining at 0.5 h [8]: 100%
- EC50 [2]: 176 nM
- Papp at 4 h [3]: 7.7 ×10⁻⁶ cm/s
- logD at 0.5 h [4]: 1.3
- Emax [5]: 8%
- Emax [6]: 81%
- solubility thermodynamic at 4 h [7]: 190 µg/mL (≈ 471 µM)

SMILES: Cc1cccc(Oc2ccc3nc(COc4cccc(C(=O)O)c4)n(C)c3c2)n1
- EC50 [1]: > 10000 nM
- remaining at 0.5 h [8]: 100%
- EC50 [2]: 1890 nM
- Papp at 4 h [3]: 2.7 ×10⁻⁶ cm/s
- logD at 0.5 h [4]: 0.8
- Emax [5]: 1%
- Emax [6]: 78%
- solubility thermodynamic at 4 h [7]: 92 µg/mL (≈ 236 µM)

SMILES: Cl.Cl.Cn1c(COc2cccc(C(=O)O)c2)nc2ccc(Oc3ccccc3)nc21
- remaining at 0.5 h [8]: 100%
- logD at 0.5 h [4]: 1.2
- Activity [9]: inactive
- Emax [6]: 61%
- solubility thermodynamic at 4 h [7]: 160 µg/mL

SMILES: Cc1cccnc1Oc1ccc2nc(COc3cccc(C(=O)O)c3)n(C)c2c1
- EC50 [1]: > 10000 nM
- remaining at 0.5 h [8]: 100%
- EC50 [2]: 351 nM
- Papp at 4 h [3]: 6 ×10⁻⁶ cm/s
- logD at 0.5 h [4]: 0.9
- Emax [5]: 8%
- Emax [6]: 83%
- solubility thermodynamic at 4 h [7]: 37 µg/mL (≈ 95 µM)

SMILES: Cn1c(COc2cccc(C(=O)O)c2)nc2ccc(Oc3ncccc3Cl)cc21
- EC50 [1]: > 10000 nM
- remaining at 0.5 h [8]: 99%
- EC50 [2]: 200 nM
- Papp at 4 h [3]: 8.1 ×10⁻⁶ cm/s
- logD at 0.5 h [4]: 1.1
- Emax [5]: 6%
- Emax [6]: 93%
- solubility thermodynamic at 4 h [7]: 15 µg/mL (≈ 36.6 µM)

SMILES: Cc1ccc(C)c(Oc2ccc3nc(COc4cccc(C(=O)O)c4)n(C)c3c2)n1
- EC50 [1]: > 10000 nM
- EC50 [2]: 717 nM
- Papp at 4 h [3]: 11 ×10⁻⁶ cm/s
- logD at 0.5 h [4]: 1.4
- Emax [5]: 7%
- Emax [6]: 117%
- solubility thermodynamic at 4 h [7]: 85 µg/mL (≈ 211 µM)

SMILES: Cc1ccnc(Oc2ccc3nc(COc4cccc(C(=O)O)c4)n(C)c3c2)c1
- EC50 [1]: > 10000 nM
- EC50 [2]: 458 nM
- Papp at 4 h [3]: 3.5 ×10⁻⁶ cm/s
- logD at 0.5 h [4]: 0.8
- Emax [5]: 2%
- Emax [6]: 41%
- solubility thermodynamic at 4 h [7]: 33 µg/mL (≈ 84.7 µM)

SMILES: Cc1ccc(Oc2cc3c(cn2)nc(COc2cccc(C(=O)O)c2)n3C)cc1
- EC50 [1]: > 10000 nM
- remaining at 0.5 h [8]: 80%
- EC50 [2]: 746 nM
- Papp at 4 h [3]: 6.8 ×10⁻⁶ cm/s
- logD at 0.5 h [4]: 1
- Activity [9]: inactive
- Emax [5]: 6%
- Emax [6]: 80%
- solubility thermodynamic at 4 h [7]: 360 µg/mL (≈ 924 µM)

SMILES: Cn1c(COc2cccc(C(=O)O)c2)nc2cnc(Oc3ccc(Cl)c(F)c3)cc21
- EC50 [1]: > 10000 nM
- remaining at 0.5 h [8]: 98%
- EC50 [2]: 1170 nM
- Papp at 4 h [3]: 11.2 ×10⁻⁶ cm/s
- logD at 0.5 h [4]: 1.4
- Activity [9]: inactive
- Emax [5]: 15%
- Emax [6]: 73%
- solubility thermodynamic at 4 h [7]: 11 µg/mL (≈ 25.7 µM)
